Our source for the MIC values is US20090062337A1, “Treatment of Microbial Infections” (WYSIS TECHNOLOGY FOUNDATION, INC., priority 2007, published 2009).

Converted amounts (≈) assume the structure as drawn.

In this experiment the test system is Burkholderia cepacia. In words: MIC against Burkholderia cepacia. It is filed as cell-based. The note with it: Table 2; comparison of compounds against Burkholderia cepacia.

On to `Oc1ccc2ccccc2n1` [2-hydroxyquinolone], for which the MIC was greater than 128 mg/L.
`Nc1ccnc2ccccc12` [4-aminoquinoline]: the MIC was determined as 40 mg/L (≈ 277 µM).

What is called MIC is the least concentration at which growth counts as inhibited. High values mean a less susceptible organism, low ones a more susceptible organism.
